Experimental findings from US20090233307A1, “METHODS FOR DETECTION OF SINGLE STRAND BREAKS IN DNA” (The University of North Carolina at Chapel Hill, priority 2008, published 2009) are described below.

Data set [1] concerns Pol β null cells. Format: cell-based, chicken. As to the method:
(§1) DT40 and Pol β null cells were seeded into 100 cm dishes and allowed to divide overnight to reach the density of 1×10^6 cells/mL. Cells were exposed to a continuous treatment of 1 mM methyl methanesulfonate (MMS; Aldrich) for up to 4 hours. Control cells received 1× phosphate buffered saline (PBS) for 0.5 hour. After incubation, cells were harvested, washed with chilled 1× PBS, pelleted, and stored at −80° C. until DNA isolation. Using this protocol, DT40 cells were also incubated in the absence of chemical to obtain a stock of untreated DNA.

Data set [2] has as its system Chinese hamster ovary (CHO) AA8 cells. The data set is described as follows: OTX-coupled comet assay. Format: cell-based. Particulars: 10 minute exposure to 1 mM MMS, CHO AA8. As to the method: Chinese hamster ovary (CHO) AA8 cells were seeded at a concentration 0.5×10^6 cell/mL into several 10 cm culture dishes with 10 mL of MEM-α media (Gibco) supplemented with 10% fetal bovine serum (heat inactivated; Sigma), 100 μg/mL penicillin, and 100 μg/mL streptomycin. These were allowed to grow for 48 hours at 37° C. and 5% CO2. Culture dishes were about 80-85% confluent at harvest.
Before cells were harvested for use in the comet assay, the lysis solution (2.5 M NaCl, 100 mM Na2-EDTA, 10 mM Trizma, pH 10) was completed with the addition of 10% (v/v) DMSO and 1% (v/v) Triton X-100, mixed thoroughly, and refrigerated at 4° C. A 0.5% solution of low melting point agarose (LMPA) was also prepared and allowed to equilibrate to 37° C. in a water bath. Partially frosted microscope slides, pre-coated several days before with 50 μL of 1% normal melting point agarose (NMPA), were labeled and set aside.
Prior to cell harvest, the media was removed and each dish was washed with 10 mL of 1×PBS. An additional 2 mL of 1×PBS was added to each dish and the cells were harvested using a rubber policeman. Harvested cells were combined into 15 mL centrifuged tubes and gently mixed by pipetting to obtain a homogenous cell sample. The cell count was obtained using a hemacytometer. The volume of cell sample needed to obtain 11,000 cells per slide to be prepared was added to a new 15 mL centrifuge tube and centrifuged for 5 minutes at 1,100 RPM. The supernatant was removed and the cell pellet resuspended in 1×PBS at a volume equal to 10 μL per slide to be prepared (e.g. 5 slides×10 μL per slide=50 μL 1×PBS total).
For each slide to be prepared, 10 μL of the cell sample was added to a 1.5 mL centrifuge tube. The cell layer of the slide was created by first gently mixing 100 μL of the 0.5% LMPA with the 10 μL of cell sample in the tube. This mixture was then added to a pre-coated slide and a coverslip placed onto the slide to create a thin layer of the cell mixture. Slides with cell layers were then refrigerated at 4° C. for 15 minutes to solidify the gel. After this incubation, the initial coverslips were removed and an additional 150 μL of 0.5% LMPA was added to each slide. A fresh coverslip was placed onto each slide to create a thin top layer and the slides were refrigerated for another 15 minutes. After removing the coverslip, completed slides that were receiving MMS treatment were placed in a slide chamber containing warmed MEM-α media with 1 mM MMS for 10 minutes. The slide chamber was kept warm by placing it within an incubator held at 37° C. After the 10 minutes, the slides were washed with 1×PBS for 5 minutes at room temperature and then transferred to slide chambers containing the chilled lysis solution. […]

Data set [3] has as its system Pol β null cells. The data set is described as follows: Alkaline gel electrophoresis with or without OTX of DNA from exposed Pol β null cells. Type of data set: cell-based, chicken. Conditions: 1 mM MMS, 1-4 hours. As to the method:
as §1
DNA was extracted using a PureGene® DNA extraction kit (Gentra Systems. Inc.) with modifications as described previously (Nakamura et al., J. Biol. Chem., 275, 5323-5328 (2000)).
An alkaline gel electrophoresis protocol (AGE) (Drouin et al., in: Technologies for Detection of DNA Damage and Mutations (G. P. Pfeifer, ed.). Plenum Press, New York, N.Y., pp. 37-43 (1996)) with modifications was used to assess SSBs and ALSs in DNA from exposed cells. The 0.7% agarose gel was prepared in gel buffer (50 mM NaCl, 1 mM EDTA, pH 7) and deionized water. After forming, the gel was soaked in mild alkaline running buffer (30 mM NaOH, 1 mM EDTA, pH 12.4) for at least 30 minutes. Equal amounts of DNA (3-5 μg) were incubated for 1 hour at 37° C. in the presence or absence of 30 mM OTX (Aldrich) in 50 mM HEPES buffer. […]

Take `COS(C)(=O)=O` [MMS, methyl methanesulfonate]: in data set [1], the “AP site formation (ASB assay) compared with parental DT40 cells” value is “more massive AP site formation”. The “AP sites (ASB assay) compared to control” value in data set [1] (chicken, 1 mM) is listed as “time-dependent, significant (p<0.01 for all time points, student t-test) increase in AP sites”. Also, the “tail moment compared to the untreated control (no MMS)” value in data set [2] is recorded as “significant difference in tail moment”. In data set [3], the “SSB accumulation (DNA migration) by OTX-AGE” value was “clear time-dependent increase in DNA migration”.
